Among the data in patent US11311520B2, “Substituted dihydroimidazopyridinediones as MKNK1 and MKNK2 inhibitors” (Bayer Pharma Aktiengesellschaft, priority 2017, dated 2022) are IC50 values, retold here.

In general, IC50 refers to the concentration needed to halve the response being measured.

This assay deals with human full-length MKNK1 (Homo sapiens (Human), UniProt Q9BUB5, T344D). In words: MKNK1 kinase high ATP assay (TR-FRET). Format: biochemical. The settings on record: 2 mM ATP, 15 min preincubation with enzyme, GST-MKNK1 (T344D). How it is done: MKNK1 Kinase High ATP Assay
MKNK1-inhibitory activity at high ATP of compounds of the present invention after their preincubation with MKNK1 was quantified employing the TR-FRET-based MKNK1 high ATP assay as described in the following paragraphs.
A recombinant fusion protein of Glutathione-S-Transferase (GST, N-terminally) and human full-length MKNK1 (amino acids 1-424 and T344D of accession number BAA 19885.1), expressed in insect cells using baculovirus expression system and purified via glutathione sepharose affinity chromatography, was purchased from Carna Biosciences (product no 02-145) and used as enzyme. As substrate for the kinase reaction the biotinylated peptide biotin-Ahx-IKKRKLTRRKSLKG (SEQ ID NO: 1) (C-terminus in amide form) was used, which can be purchased e.g. from the company Biosyntan (Berlin-Buch, Germany)
For the assay 50 nL of a 100 fold concentrated solution of the test compound in DMSO was pipetted into a black low volume 384 well microtiter plate (Greiner Bio-One, Frickenhausen, Germany), 2 μL of a solution of MKNK1 in aqueous assay buffer [50 mM HEPES pH 7.5, 5 mM MgCl2, 1.0 mM dithiothreitol, 0.005% (v/v) Nonidet-P40 (Sigma)] was added and the mixture was incubated for […] at 22° C. to allow pre-binding of the test compounds to the enzyme before the start of the kinase reaction. Then the kinase reaction was started by the addition of 3 μL of a solution of adenosine-tri-phosphate (ATP, 3.3 mM=>final conc. in the 5 μL assay volume is 2 mM) and substrate (0.1 μM=>final conc. in the 5 μL assay volume is 0.06 μM) in assay buffer and the resulting mixture was incubated for a reaction time of 30 min at 22° C. The concentration of MKNK1 was adjusted depending of the activity of the enzyme lot and was chosen appropriate to have the assay in the linear range, typical concentrations were in the range of 0.003 μg/mL. The reaction was stopped by the addition of 5 μL of a solution of TR-FRET detection reagents (5 nM streptavidine-XL665 [Cisbio Bioassays, Codolet, France] and 1 nM anti-ribosomal protein S6 (pSer236)-antibody from Invitrogen [#44921G] and 1 nM LANCE EU-W1024 labeled ProteinG [Perkin-Elmer, product no. AD0071]) in an aqueous EDTA-solution (100 mM EDTA, 0.1% (w/v) bovine serum albumin in 50 mM HEPES pH 7.5).
The resulting mixture was incubated for 1 h at 22° C. to allow the formation of complex between the phosphorylated biotinylated peptide and the detection reagents. Subsequently the amount of phosphorylated substrate was evaluated by measurement of the resonance energy transfer from the Eu-chelate to the streptavidine-XL. Therefore, the fluorescence emissions at 620 nm and 665 nm after excitation at 350 nm were measured in a TR-FRET reader, e.g. a Rubystar (BMG Labtechnologies, Offenburg, Germany) or a Viewlux (Perkin-Elmer). The ratio of the emissions at 665 nm and at […] was taken as the measure for the amount of phosphorylated substrate. The data were normalised (enzyme reaction without inhibitor=0% inhibition, all other assay components but no enzyme=100% inhibition).
In general terms: In TR-FRET formats the signal depends on donor and acceptor labels being close together.

SMILES strings stand for the structures.

Chain of human full-length MKNK1 (Q9BUB5 other isoform, or with tags, fused parts or gaps T344D): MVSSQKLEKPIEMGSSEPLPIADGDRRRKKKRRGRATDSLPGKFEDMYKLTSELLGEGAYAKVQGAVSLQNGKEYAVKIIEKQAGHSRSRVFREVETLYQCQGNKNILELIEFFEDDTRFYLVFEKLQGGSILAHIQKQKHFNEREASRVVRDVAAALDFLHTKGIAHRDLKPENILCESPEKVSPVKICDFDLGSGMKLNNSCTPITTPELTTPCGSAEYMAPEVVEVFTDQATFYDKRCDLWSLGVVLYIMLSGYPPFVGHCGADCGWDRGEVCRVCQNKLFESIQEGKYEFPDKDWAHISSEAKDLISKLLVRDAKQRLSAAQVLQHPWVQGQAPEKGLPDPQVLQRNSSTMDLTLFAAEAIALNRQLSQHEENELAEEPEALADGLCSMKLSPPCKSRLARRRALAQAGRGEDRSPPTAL

With `Cc1cc(Nc2ccnc3[nH]ccc23)c(=O)n2c1C(=O)NC21CCCCC1` [Example 22, 8′-Methyl-6′-(1H-pyrrolo[2,3-b]pyridin-4-ylamino)-2′H-spiro[cyclohexane-1,3′-imidazo[1,5-a]pyridine]-1′,5′-dione], half-maximal inhibition (IC50) required 12.3 nM.

The compound `Cc1cc(Nc2ncnc3sccc23)c(=O)n2c1C(=O)N[C@]21CC[C@@](O)(C(F)(F)C(F)(F)F)CC1` [Example 193, (cis)-4-hydroxy-8′-methyl-4-(pentafluoroethyl)-6′-[(thieno[2,3-d]pyrimidin-4-yl)amino]-2′H-spiro[cyclohexane-1,3′-imidazo[1,5-a]pyridine]-1′,5′-dione] gave a concentration for half-maximal inhibition (IC50) of 29.8 nM.

In turn, `Cc1cc(Nc2ccnc3[nH]cnc23)c(=O)n2c1C(=O)NC21CCCCC1` [Example 57, 6′-(3H-Imidazo[4,5-b]pyridin-7-ylamino)-8′-methyl-2′H-spiro[cyclohexane-1,3′-imidazo[1,5-a]pyridine]-1′,5′-dione] showed an IC50 of 6.2 nM.

In the case of `Cc1cc(Nc2ncnc3cc(Cl)ccc23)c(=O)n2c1C(=O)NC21CCCC1` [Example 186, 6′-[(7-chloroquinazolin-4-yl)amino]-8′-methyl-2′H-spiro[cyclopentane-1,3′-imidazo[1,5-a]pyridine]-1′,5′-dione], half-maximal inhibition (IC50) was put at 5.5 nM.

For `CCCNC(=O)Nc1ncnc(Nc2cc(C)c3n(c2=O)C2(CCCCC2)NC3=O)n1` [Example 3, 1-{4-[(8′-Methyl-1′,5′-dioxo-1′,5′-dihydro-2′H-spiro[cyclohexane-1,3′-imidazo[1,5-a]pyridin]-6′-yl)amino]-1,3,5-triazin-2-yl}-3-propylurea], the IC50 was determined as 18.8 nM.

As for `Cc1cc(Nc2ncnc3sc(C(=O)N(C)C)c(C)c23)c(=O)n2c1C(=O)NC21CCCCC1` [Example 16, N,N,5-trimethyl-4-[(8′-methyl-1′,5′-dioxo-1′,5′-dihydro-2′H-spiro[cyclohexane-1,3′-imidazo[1,5-a]pyridin]-6′-yl)amino]thieno[2,3-d]pyrimidine-6-carboxamide], the IC50 was 66.7 nM.

`Cc1ccc2c(Nc3cc(C)c4n(c3=O)C3(CCCCC3)NC4=O)ncnc2c1` [Example 121, 8′-Methyl-6′-[(7-methylquinazolin-4-yl)amino]-2′H-spiro[cyclohexane-1,3′-imidazo[1,5-a]pyridine]-1′,5′-dione]: 7.1 nM corresponded to half-maximal inhibition (IC50). This IC50 is about 9.4-fold lower than that of the compound before.

The compound `COc1ccc2ncnc(Nc3cc(C)c4n(c3=O)C3(CCCCC3)NC4=O)c2c1` [Example 117, 6′-[(6-Methoxyquinazolin-4-yl)amino]-8′-methyl-2′H-spiro[cyclohexane-1,3′-imidazo[1,5-a]pyridine]-1′,5′-dione] registered a concentration for half-maximal inhibition (IC50) of 12.5 nM.

The compound `Cc1cc(Nc2ncnc3sc(C(=O)N4CC[C@@H](N(C)C)C4)cc23)c(=O)n2c1C(=O)NC21CCC1` [Example 156, 6′-[(6-{[(3R)-3-(Dimethylamino)pyrrolidin-1-yl]carbonyl}thieno[2,3-d]pyrimidin-4-yl)amino]-8′-methyl-2′H-spiro[cyclobutane-1,3′-imidazo[1,5-a]pyridine]-1′,5′-dione] showed an IC50 of 4.3 nM.

In turn, `Cc1cc(Nc2ncnc3sc(C(=O)N4CCC(N(C)C)CC4)c(C)c23)c(=O)n2c1C(=O)NC21CCCCC1` [Example 20, 6′-[(6-{[4-(Dimethylamino)piperidin-1-yl]carbonyl}-5-methylthieno[2,3-d]pyrimidin-4-yl)amino]-8′-methyl-2′H-spiro[cyclohexane-1,3′-imidazo[1,5-a]pyridine]-1′,5′-dione] displayed an IC50 of 35.2 nM.

`Cc1cc(Nc2ncnc3cc(Cl)ccc23)c(=O)n2c1C(=O)NC21CS(=O)(=O)C1` [Example 181, 6-[(7-chloroquinazolin-4-yl)amino]-8-methyl-2H-spiro[imidazo[1,5-a]pyridine-3,3′-thietane]-1,5-dione 1′,1′-dioxide] returned an IC50 of 104 nM.

`Cc1cc(Nc2ncnc3sc(C(=O)N4CC(N)C4)cc23)c(=O)n2c1C(=O)NC21CCC1` [Example 154, 6′-({6-[(3-Aminoazetidin-1-yl)carbonyl]thieno[2,3-d]pyrimidin-4-yl}amino)-8′-methyl-2′H-spiro[cyclobutane-1,3′-imidazo[1,5-a]pyridine]-1′,5′-dione] registered a 50% inhibitory concentration (IC50) of 5 nM.

`Cc1cc(Nc2ncnc3sc(C(=O)O)cc23)c(=O)n2c1C(=O)NC2(C)C` [Example 136, 4-[(3,3,8-Trimethyl-1,5-dioxo-1,2,3,5-tetrahydroimidazo[1,5-a]pyridin-6-yl)amino]thieno[2,3-d]pyrimidine-6-carboxylic acid] gave a half-maximal inhibitory concentration (IC50) of 122 nM.

`Cc1cc(Nc2ncnc3c2CNC3)c(=O)n2c1C(=O)NC2(C)C` [Example 165, 6-(6,7-Dihydro-5H-pyrrolo[3,4-d]pyrimidin-4-ylamino)-3,3,8-trimethyl-2,3-dihydroimidazo[1,5-a]pyridine-1,5-dione] had a half-inhibitory concentration (IC50) of 168 nM.

For the compound `Cc1cc(Nc2ncnc3ccc(F)cc23)c(=O)n2c1C(=O)N[C@]21CC[C@@](O)(C(F)(F)C(F)(F)F)CC1` [Example 192, (cis)-6′-[(6-fluoroquinazolin-4-yl)amino]-4-hydroxy-8′-methyl-4-(pentafluoroethyl)-2′H-spiro[cyclohexane-1,3′-imidazo[1,5-a]pyridine]-1′,5′-dione], the IC50 was found to be 281 nM.

In turn, `CC(=O)N1Cc2ncnc(Nc3cc(C)c4n(c3=O)C3(CCCCC3)NC4=O)c2C1` [Example 78, 6′-[(6-Acetyl-6,7-dihydro-5H-pyrrolo[3,4-d]pyrimidin-4-yl)amino]-8′-methyl-2′H-spiro[cyclohexane-1,3′-imidazo[1,5-a]pyridine]-1′,5′-dione] showed a half-inhibitory concentration (IC50) of 37.9 nM.

Compound `Cc1cc(Nc2ncnc3[nH]ccc23)c(=O)n2c1C(=O)NC21CCC(O)(C(F)(F)F)CC1` (centres unmarked) [Example 128, 4-Hydroxy-8′-methyl-6′-(7H-pyrrolo[2,3-d]pyrimidin-4-ylamino)-4-(trifluoromethyl)-2′H-spiro[cyclohexane-1,3′-imidazo[1,5-a]pyridine]-1′,5′-dione] yielded an IC50 of 1 nM.

`Cc1cc(Nc2ncnc3sc(C(=O)N4CCC(N(C)C)CC4)cc23)c(=O)n2c1C(=O)NC2(C)C` [Example 143, 6-[(6-{[4-(Dimethylamino)piperidin-1-yl]carbonyl}thieno[2,3-d]pyrimidin-4-yl)amino]-3,3,8-trimethyl-2,3-dihydroimidazo[1,5-a]pyridine-1,5-dione] gave an IC50 of 40.3 nM. This IC50 lies about 40-fold higher than the previous one.

The compound `Cc1cc(Nc2ncnc3[nH]ccc23)c(=O)n2c1C(=O)NC21CSC1` [Example 178, 8-methyl-6-[(7H-pyrrolo[2,3-d]pyrimidin-4-yl)amino]-2H-spiro[imidazo[1,5-a]pyridine-3,3′-thietane]-1,5-dione] displayed an IC50 of 1.1 nM. This IC50 is about 37-fold lower than that of the compound before.

Turning to `Cc1cc(Nc2ncnc(N)n2)c(=O)n2c1C(=O)NC21CCCC1` [Example 54, 6′-[(4-Amino-1,3,5-triazin-2-yl)amino]-8′-methyl-2′H-spiro[cyclopentane-1,3′-imidazo[1,5-a]pyridine]-1′,5′-dione], the IC50 came to 5.7 nM.

Take `Cc1cc(Nc2ncnc3sc(C(=O)N4CC(N)C4)cc23)c(=O)n2c1C(=O)NC21CCCC1` [Example 74, 6′-({6-[(3-Aminoazetidin-1-yl)carbonyl]thieno[2,3-d]pyrimidin-4-yl}amino)-8′-methyl-2′H-spiro[cyclopentane-1,3′-imidazo[1,5-a]pyridine]-1′,5′-dione]: the half-maximal inhibitory concentration (IC50) was 1.5 nM.

The compound `Cc1cc(Nc2ncnc3c2CN(C(=O)OC(C)(C)C)C3)c(=O)n2c1C(=O)NC21CCCC1` [Example 103, tert-Butyl 4-[(8′-methyl-1′,5′-dioxo-1′,5′-dihydro-2′H-spiro[cyclopentane-1,3′-imidazo[1,5-a]pyridin]-6′-yl)amino]-5,7-dihydro-6H-pyrrolo[3,4-d]pyrimidine-6-carboxylate] yielded an IC50 of 4.7 nM.

The compound `Cc1cc(Nc2ncnc3sc(C(=O)N4CCC(N(C)C)CC4)cc23)c(=O)n2c1C(=O)NC21CCC(F)(F)CC1` [Example 87, 6′-[(6-{[4-(Dimethylamino)piperidin-1-yl]carbonyl}thieno[2,3-d]pyrimidin-4-yl)amino]-4,4-difluoro-8′-methyl-2′H-spiro[cyclohexane-1,3′-imidazo[1,5-a]pyridine]-1′,5′-dione] returned a concentration for half-maximal inhibition (IC50) of 23.1 nM.
